# Results as given in PubChem BioAssay (NCI).
#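 All cell lines were grown in 96-well plates and treated with compound for 48 hours. GI50: concentration for 50% inhibition of growth. TGI: total growth inhibition.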
# Experiments:
# Experiment in all cases: DTP human tumour cell line panel, 48 h
# [1] = tested on: MALME-3M melanoma
# [2] = tested on: COLO 205 colon
# [3] = tested on: SK-MEL-28 melanoma
# [4] = tested on: HT29 colon
# [5] = tested on: HCT-116 colon
# [6] = tested on: HOP-62 NSCLC
# [7] = tested on: U251 CNS
# [8] = tested on: OVCAR-4 ovarian
Compound,GI50 [1],TGI [1],GI50 [2],TGI [2],GI50 [3],TGI [3],GI50 [4],TGI [4],GI50 [5],TGI [5],GI50 [6],TGI [6],GI50 [7],TGI [7],GI50 [8],TGI [8]
COC(=O)c1c2c(c(C)[n+]([O-])c1C)C(=O)C(NCc1ccc(OC)cc1)=CC2=O,0.28 µM,1.1 µM,0.839 µM,2.75 µM,2.95 µM,11.3 µM,2.15 µM,> 100 µM,2.17 µM,7.13 µM,3.64 µM,97.2 µM,2.57 µM,8.82 µM,1.12 µM,2.38 µM
CC1(C)N=C(N)N=C(N)N1c1ccc(OCCCNC(=O)Nc2ccc(S(=O)(=O)F)cc2)c(Cl)c1,2.02 µM,> 100 µM,0.854 µM,> 100 µM,1.74 µM,> 100 µM,0.1 µM,> 100 µM,0.0613 µM,> 100 µM,0.82 µM,> 100 µM,0.211 µM,> 100 µM,4.05 µM,> 100 µM
COc1cccc2c1nc(C(F)F)n2-c1nc(-c2ccc(NS(=O)(=O)CCN(C)C)cc2)nc(N2CCOCC2)n1,0.0333 µM,0.317 µM,0.0908 µM,2.64 µM,0.0774 µM,2.5 µM,0.0999 µM,4.39 µM,0.456 µM,2.98 µM,0.123 µM,6.56 µM,0.454 µM,5.09 µM,0.138 µM,2.58 µM
Cc1c(Cl)cccc1C(=O)Nc1nc2c(s1)CN(C(=O)Nc1cccc(C(F)(F)F)c1)CC2,0.356 µM,> 50 µM,0.174 µM,4.36 µM,0.985 µM,> 50 µM,0.173 µM,> 23.3 µM,0.212 µM,> 50 µM,0.278 µM,> 50 µM,0.242 µM,> 50 µM,1.45 µM,> 50 µM
ClC1=C(Cl)C(Cl)(C2(Cl)C(Cl)=C(Cl)C(Cl)=C2Cl)C(Cl)=C1Cl,0.188 µM,0.446 µM,0.202 µM,0.462 µM,0.279 µM,0.847 µM,0.242 µM,0.617 µM,0.189 µM,0.439 µM,2.21 µM,4.56 µM,1.51 µM,6.91 µM,0.2 µM,0.509 µM
COC(=O)C(=O)C(C(=O)C(=O)Nc1ccc(Cl)c(Cl)c1)c1nc2ccc(C(=O)c3ccccc3)cc2[nH]c1=O (centres undefined),,> 100 µM,,,,> 100 µM,,> 100 µM,,> 100 µM,,> 100 µM,,> 100 µM,,
CN(C)CCNC(=O)c1cc2c3cc(Cl)ccc3[nH]c2c2ncccc12,1.89 µM,3.94 µM,1.97 µM,10.5 µM,2.12 µM,4.18 µM,2.33 µM,10.3 µM,1.52 µM,4.68 µM,5.85 µM,19.1 µM,2.49 µM,9.45 µM,4.89 µM,19.6 µM
COC(=O)[C@@H](C)C[C@H](Cc1ccccc1)NC(=O)c1nc([C@@H](C[C@H](C(C)C)N(C)C(=O)[C@@H](NC(=O)[C@H]2C[C@H](O)CCN2C)C(C)C)OC(C)=O)sc1C(C)C,0.00537 µM,> 11.1 µM,0.00692 µM,0.104 µM,0.0191 µM,> 11.1 µM,0.00377 µM,> 3.99 µM,0.004 µM,3.88 µM,0.0315 µM,> 11.1 µM,0.0075 µM,> 11.1 µM,0.0493 µM,> 11.1 µM
CN1C(=O)C(c2c[nH]c3ccccc23)=C(c2c[nH]c3ccccc23)C1=O,7.44 µM,> 20.8 µM,4.77 µM,12.4 µM,7.84 µM,> 25 µM,8.47 µM,> 25 µM,6.75 µM,> 25 µM,6.68 µM,> 25 µM,7.03 µM,> 25 µM,7.58 µM,> 25 µM
CC(C)=CC[C@@H]1CC2(CC=C(C)C)C(=O)C(OC3(C(=O)c4ccccc4)C(=O)C4(CC=C(C)C)C[C@@H](CC=C(C)C)C(C)(C)C(CC=C(C)C)(C4=O)C3=O)(C(=O)c3ccccc3)C(=O)C(CC=C(C)C)(C2=O)C1(C)C (some centres undefined),0.901 µM,2.18 µM,1.2 µM,3.22 µM,1.18 µM,3.25 µM,1.41 µM,4.31 µM,0.953 µM,2.3 µM,1.36 µM,4 µM,1.64 µM,5.34 µM,,
Cn1cc(C2NC(=O)c3ccccc3N2)c2ccccc21 (centres undefined),,> 29.7 µM,,,,> 100 µM,,0.86 µM,,> 20.4 µM,,> 100 µM,,6.27 µM,,58.4 µM
Sc1cccc2cccnc12,1.06 µM,14 µM,2.32 µM,9.38 µM,1.15 µM,16.2 µM,0.918 µM,11.2 µM,0.411 µM,7.8 µM,1.11 µM,12.3 µM,0.598 µM,13.9 µM,0.445 µM,12.7 µM
N#CC1=C(N)Oc2c(sc3c(Br)cccc23)C1c1ccc([N+](=O)[O-])cc1 (centres undefined),1.08 µM,24.7 µM,0.224 µM,1.14 µM,2.66 µM,21 µM,0.297 µM,3.2 µM,0.0799 µM,11 µM,0.123 µM,14 µM,0.151 µM,11.8 µM,0.9 µM,18.7 µM
O=c1c2ccccc2nc(-c2cccc([N+](=O)[O-])c2)n1O,,> 100 µM,,> 100 µM,,> 100 µM,,> 100 µM,,> 100 µM,,> 100 µM,,> 100 µM,,> 100 µM
COc1cc(/C=C2\CC3C4CC=C5CC(OC(C)=O)CC[C@]5(C)C4CC[C@]3(C)C2=O)ccc1OCCN1CCCC1 (some centres undefined),,,4.83 µM,> 63.8 µM,2.54 µM,,0.646 µM,,1.52 µM,3.14 µM,9.52 µM,23 µM,4.2 µM,14.7 µM,2.38 µM,> 19.6 µM
O=C(N/N=C/c1ccc(Cl)cc1)c1ccc(NC(=O)c2ccccn2)cc1,33.1 µM,> 100 µM,> 100 µM,> 100 µM,33 µM,> 100 µM,> 100 µM,> 100 µM,11.8 µM,> 100 µM,18.2 µM,91.3 µM,6.45 µM,23.3 µM,3.07 µM,10.6 µM

Compound,GI50 [1],TGI [1],GI50 [2],TGI [2],GI50 [3],TGI [3],GI50 [4],TGI [4],GI50 [5],TGI [5],GI50 [6],TGI [6],GI50 [7],TGI [7],GI50 [8],TGI [8]
Nc1ccc(/C=C/c2ccc3ncccc3c2)cc1,> 100 µM,> 100 µM,> 100 µM,> 100 µM,> 100 µM,> 100 µM,> 100 µM,> 100 µM,> 100 µM,> 100 µM,> 100 µM,> 100 µM,> 100 µM,> 100 µM,> 100 µM,> 100 µM
CCOc1ccc(N(C)c2ccc(/C=C/C3=[N+](C)c4ccccc4C3(C)C)cc2)cc1,0.184 µM,0.848 µM,0.211 µM,0.81 µM,0.68 µM,2.11 µM,0.137 µM,1.06 µM,0.0725 µM,1.1 µM,0.482 µM,1.91 µM,0.122 µM,1.17 µM,0.399 µM,2.18 µM
COc1ccc(-c2csc3c2-n2cccc2C3=O)cc1,,> 100 µM,,5.78 µM,,> 100 µM,0.00571 µM,,0.0199 µM,> 45.4 µM,0.0986 µM,> 72 µM,0.00887 µM,> 100 µM,2.58 µM,> 100 µM
COC(=O)N[C@H]1CCc2cc(OC)c(OC)c(OC)c2-c2ccc(SC)c(=O)cc21,< 0.012 µM,> 100 µM,< 0.01 µM,,> 100 µM,> 100 µM,< 0.01 µM,> 100 µM,< 0.01 µM,> 100 µM,< 0.01 µM,> 100 µM,< 0.01 µM,> 43.5 µM,0.0205 µM,> 100 µM
CCN(Cc1ccc(OC)cc1)c1ccc(CO)c(Cl)c1,17 µM,38.4 µM,0.451 µM,3.31 µM,16.3 µM,36.6 µM,2.07 µM,17.3 µM,0.0875 µM,10.8 µM,2.05 µM,29.4 µM,0.966 µM,26.6 µM,0.369 µM,15.9 µM
O=C(CCCc1ccc(N(CCCl)CCCl)cc1)NCc1ccccc1,13.2 µM,37.6 µM,13.5 µM,33 µM,17.2 µM,> 100 µM,8.21 µM,52 µM,4.57 µM,20.7 µM,8 µM,40.5 µM,6.6 µM,43.4 µM,12.5 µM,35.1 µM
O=C(NCc1cn(Cc2cccc(Oc3ccccc3)c2)nn1)c1cccnc1Nc1ccc(F)cc1,15.1 µM,> 100 µM,6.22 µM,> 100 µM,7.98 µM,> 100 µM,5.6 µM,> 100 µM,5.02 µM,> 100 µM,6.02 µM,32.5 µM,7.12 µM,> 100 µM,23.4 µM,> 100 µM
CC(C)(C)CC(C)(C)c1ccc(OCCO)cc1,,,4.69 µg/mL,15.4 µg/mL,11.4 µg/mL,29.7 µg/mL,10.6 µg/mL,28.1 µg/mL,3.86 µg/mL,14.5 µg/mL,3.75 µg/mL,16.3 µg/mL,5.34 µg/mL,19.6 µg/mL,1.5 µg/mL,21.5 µg/mL
Cn1cc(C2=C(c3ccsc3)C(=O)NC2=O)c2ccccc21,> 25 µM,> 25 µM,> 25 µM,> 25 µM,> 25 µM,> 25 µM,> 25 µM,> 25 µM,> 25 µM,> 25 µM,> 25 µM,> 25 µM,> 25 µM,> 25 µM,> 25 µM,> 25 µM
O=C([CH-]C(=O)c1ccccc1)c1ccccc1.O=C([CH-]C(=O)c1ccccc1)c1ccccc1.O=C([CH-]C(=O)c1ccccc1)c1ccccc1.[Ga+3],> 100 µM,> 100 µM,> 100 µM,> 100 µM,> 100 µM,> 100 µM,88.8 µM,> 100 µM,23.4 µM,> 100 µM,,,23.3 µM,> 100 µM,64.7 µM,> 100 µM
O=c1[nH]c2ccccc2n1C1CCNCC1,,,> 100 µM,> 100 µM,> 100 µM,> 100 µM,> 100 µM,> 100 µM,> 100 µM,> 100 µM,> 100 µM,> 100 µM,> 100 µM,> 100 µM,> 100 µM,> 100 µM
Cn1ncnc1[C@@H]1c2n[nH]c(=O)c3cc(F)cc(c23)N[C@H]1c1ccc(F)cc1,> 100 µM,> 100 µM,> 100 µM,> 100 µM,> 100 µM,> 100 µM,> 100 µM,> 100 µM,> 100 µM,> 100 µM,> 100 µM,> 100 µM,,,> 100 µM,> 100 µM
C=CCC1(O)c2ccccc2C(=O)c2c(OCC(=O)OCC)ccc(OCC(=O)OCC)c21 (centres undefined),,,> 100 µM,> 100 µM,> 100 µM,> 100 µM,> 100 µM,> 100 µM,> 100 µM,> 100 µM,> 100 µM,> 100 µM,81 µM,> 100 µM,> 100 µM,> 100 µM
CC(=O)/C(=C\c1ccc(Cl)cc1)c1ccccc1,43.2 µM,> 100 µM,0.141 µM,0.474 µM,2.05 µM,> 100 µM,0.14 µM,> 61.7 µM,,,0.179 µM,> 100 µM,0.0842 µM,> 100 µM,0.382 µM,> 100 µM
CCOC(=O)c1noc2c1CCc1c-2cn(Cc2ccc(OC)cc2)c1-c1cc(OC)c(OC)c(OC)c1,,,1.77 µM,7.82 µM,1.9 µM,> 100 µM,0.846 µM,> 100 µM,0.399 µM,> 100 µM,2.53 µM,> 100 µM,0.542 µM,> 100 µM,20.5 µM,> 100 µM
